87 compounds from ChEMBL document CHEMBL1255530, “3D-QSAR CoMFA study of benzoxazepine derivatives as mGluR5 positive allosteric modulators” (Bioorg Med Chem Lett, 2010) can be followed below.

The target in the experiment is Metabotropic glutamate receptor 5 (Rattus norvegicus, UniProt P31424). Put plainly: Positive allosteric modulation of rat mGluR5 expressed in HEK293 cells.
Metabotropic glutamate receptor 5, sequence (P31424 whole entry): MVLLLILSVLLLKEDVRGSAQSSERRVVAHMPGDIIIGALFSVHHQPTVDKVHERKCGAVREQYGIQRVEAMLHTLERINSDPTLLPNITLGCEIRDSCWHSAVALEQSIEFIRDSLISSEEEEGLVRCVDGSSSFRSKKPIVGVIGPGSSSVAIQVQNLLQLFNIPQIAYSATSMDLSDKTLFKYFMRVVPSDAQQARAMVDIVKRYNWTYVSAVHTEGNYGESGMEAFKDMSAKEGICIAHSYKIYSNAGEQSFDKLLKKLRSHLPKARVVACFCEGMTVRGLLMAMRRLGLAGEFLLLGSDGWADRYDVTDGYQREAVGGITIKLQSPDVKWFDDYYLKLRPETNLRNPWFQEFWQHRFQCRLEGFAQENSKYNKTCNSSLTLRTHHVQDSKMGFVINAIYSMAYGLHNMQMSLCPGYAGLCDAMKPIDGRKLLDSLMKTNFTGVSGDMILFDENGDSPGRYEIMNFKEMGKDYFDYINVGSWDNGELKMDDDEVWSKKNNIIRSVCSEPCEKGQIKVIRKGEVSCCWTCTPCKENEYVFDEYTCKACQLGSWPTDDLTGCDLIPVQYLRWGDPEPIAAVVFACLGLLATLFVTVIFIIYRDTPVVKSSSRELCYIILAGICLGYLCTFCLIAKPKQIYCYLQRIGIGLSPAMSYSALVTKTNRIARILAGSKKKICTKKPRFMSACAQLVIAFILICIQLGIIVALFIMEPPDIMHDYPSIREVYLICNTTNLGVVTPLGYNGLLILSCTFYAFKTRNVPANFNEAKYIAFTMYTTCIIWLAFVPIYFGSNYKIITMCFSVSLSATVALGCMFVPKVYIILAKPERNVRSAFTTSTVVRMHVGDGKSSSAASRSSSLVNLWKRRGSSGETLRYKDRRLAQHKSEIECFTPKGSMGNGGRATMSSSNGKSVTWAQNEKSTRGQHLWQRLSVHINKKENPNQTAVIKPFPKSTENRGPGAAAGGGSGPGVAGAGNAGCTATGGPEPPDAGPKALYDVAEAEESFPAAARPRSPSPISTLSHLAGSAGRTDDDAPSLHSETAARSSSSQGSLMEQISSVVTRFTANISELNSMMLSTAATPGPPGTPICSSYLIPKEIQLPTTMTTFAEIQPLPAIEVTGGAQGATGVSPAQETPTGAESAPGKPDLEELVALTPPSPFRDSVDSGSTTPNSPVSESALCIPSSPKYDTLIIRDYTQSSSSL
Consider `CSc1nnc2c(n1)O[C@@H](c1cn(C)c3ccccc13)N(C(C)=O)c1ccccc1-2`, for which a half-maximal effect (EC50) was put at 1820 nM. The same measure for `CSc1nnc2c(n1)O[C@@H](c1ccc(OC(C)=O)c(Br)c1)N(C(C)=O)c1ccccc1-2`: 3800 nM; for `CCC(=O)N1c2ccccc2-c2nnc(SC)nc2O[C@H]1c1ccccc1Br`: 1350 nM.

With `CCOc1cc([C@@H]2Oc3nc(SC)nnc3-c3ccccc3N2C(=O)CC)cc(Br)c1OC`, the half-maximal effective concentration (EC50) was 7080 nM. Regarding `CCCC(=O)N1c2ccccc2-c2nnc(SC)nc2O[C@H]1c1cccc(OC)c1`, a half-maximal response (EC50) required 1020 nM.

`CCC(=O)N1c2ccccc2-c2nnc(SC)nc2O[C@H]1c1ccc(C)s1` had an EC50 of 1950 nM. As for `CSc1nnc2c(n1)O[C@@H](c1cccc(C)n1)N(C(C)=O)c1ccccc1-2`, the half-maximal effective concentration (EC50) is 7590 nM.

`CSc1nnc2c(n1)O[C@@H](c1ccccn1)N(C(C)=O)c1ccccc1-2` gave an EC50 of 5250 nM. Regarding `CCC(=O)N1c2ccccc2-c2nnc(SC)nc2O[C@H]1c1cc(Cl)c(OC)c(OC)c1`, the concentration giving a half-maximal response (EC50) was 1200 nM. `CCCCSc1nnc2c(n1)O[C@@H](c1cccc(F)c1)N(C(C)=O)c1ccccc1-2` gave a concentration for a half-maximal effect (EC50) of 513 nM. To `CCC(=O)N1c2ccccc2-c2nnc(SC)nc2O[C@H]1c1ccccn1` belongs 7410 nM; to `C=CCOc1ccc([C@@H]2Oc3nc(SC)nnc3-c3ccccc3N2C(C)=O)cc1`, 2570 nM; to `CSc1nnc2c(n1)O[C@@H](c1ccc(C)cc1)N(C(C)=O)c1ccccc1-2`, 2750 nM. Compound `CCCCSc1nnc2c(n1)O[C@@H](c1cccn1C)N(C(C)=O)c1ccccc1-2` gave a concentration giving a half-maximal response (EC50) of 692 nM. This EC50 is about 4-fold lower than that of the compound before. On to `CCC(=O)N1c2ccccc2-c2nnc(SC)nc2O[C@H]1c1ccc(OC)c(C)c1`, for which the EC50 was 3630 nM. The same measure for `CCSc1nnc2c(n1)O[C@@H](c1cc(Br)ccc1OC)N(C(=O)CC)c1ccccc1-2`: 813 nM; for `CCSc1nnc2c(n1)O[C@@H](c1ccccn1)N(C(=O)CC)c1ccccc1-2`: 4370 nM; for `CSc1nnc2c(n1)O[C@@H](c1cccc(Oc3ccccc3)c1)N(C(C)=O)c1ccccc1-2`: 2950 nM. As to `CSc1nnc2c(n1)O[C@@H](c1ccccc1C)N(C(C)=O)c1ccccc1-2`, a half-maximal effect (EC50) was put at 3020 nM. Turning to `CCC(=O)N1c2ccccc2-c2nnc(SC)nc2O[C@H]1c1cc(Br)c(OC)c(OC)c1`, a half-maximal response (EC50) required 1230 nM.

In turn, `CCSc1nnc2c(n1)O[C@@H](c1cccc(OC)c1)N(C(=O)CC)c1ccccc1-2` gave an EC50 of 107 nM.

`CCSc1nnc2c(n1)O[C@@H](c1ccc(SC)cc1)N(C(=O)CC)c1ccccc1-2`: the EC50 was 1230 nM. `C=CCSc1nnc2c(n1)O[C@@H](c1ccc(OC)c(OC)c1OC)N(C(C)=O)c1ccccc1-2` showed a half-maximal effective concentration (EC50) of 7760 nM. The same measure for `CSc1nnc2c(n1)O[C@@H](c1ccsc1)N(C(C)=O)c1ccccc1-2`: 1020 nM; for `COc1ccc(OC)c([C@@H]2Oc3nc(SC)nnc3-c3ccccc3N2C(C)=O)c1`: 891 nM. Turning to `CCC(=O)N1c2ccccc2-c2nnc(SC)nc2O[C@H]1c1ccccc1F`, the concentration giving a half-maximal response (EC50) is 1780 nM. In the case of `C=CCSc1nnc2c(n1)O[C@@H](c1ccc(OC(C)=O)c(OCC)c1)N(C(C)=O)c1ccccc1-2`, the EC50 was 1260 nM.

`CCC(=O)N1c2ccccc2-c2nnc(SC)nc2O[C@H]1c1cccc(C)n1` gave an EC50 of 2340 nM. This EC50 lies about 1.9-fold higher than the previous one. In turn, `CCC(=O)Oc1ccc(Br)c([C@@H]2Oc3nc(SC)nnc3-c3ccccc3N2C(=O)CC)c1` gave an EC50 of 5750 nM.

Consider `CCCSc1nnc2c(n1)O[C@@H](c1cc(OC)c(OC)cc1Cl)N(C(C)=O)c1ccccc1-2`, for which a half-maximal response (EC50) required 1200 nM. Against the preceding compound, the EC50 is about 4.8-fold lower. The same measure for `CCCSc1nnc2c(n1)O[C@@H](c1cccn1C)N(C(C)=O)c1ccccc1-2`: 347 nM; for `C=CCSc1nnc2c(n1)O[C@@H](c1cc(C)ccc1OC(C)=O)N(C(C)=O)c1ccccc1-2`: 891 nM. In the case of `CCC(=O)N1c2ccccc2-c2nnc(SC)nc2O[C@H]1c1cc(OC)c(OC)c(OC)c1`, a half-maximal effect (EC50) was put at 832 nM. In turn, `CCSc1nnc2c(n1)O[C@@H](c1cccs1)N(C(=O)CC)c1ccccc1-2` had an EC50 of 309 nM. `CCSc1nnc2c(n1)O[C@@H](c1ccco1)N(C(=O)CC)c1ccccc1-2` showed a half-maximal effective concentration (EC50) of 813 nM. Turning to `CCCCSc1nnc2c(n1)O[C@@H](c1ccsc1)N(C(C)=O)c1ccccc1-2`, a half-maximal response (EC50) required 479 nM. This EC50 lies about 1.7-fold lower than the previous one. `CCCCSc1nnc2c(n1)O[C@@H](c1cccc(C)n1)N(C(C)=O)c1ccccc1-2`: the EC50 is 617 nM. As to `CCCC(=O)N1c2ccccc2-c2nnc(SC)nc2O[C@H]1c1ccc(C(=O)OC)cc1`, the response was half-maximal at 2240 nM (EC50). `C=CCSc1nnc2c(n1)O[C@@H](c1ccc(OCC)c(OC)c1)N(C(C)=O)c1ccccc1-2`: the EC50 was 692 nM. For the compound `C=CCSc1nnc2c(n1)O[C@@H](c1sccc1C)N(C(C)=O)c1ccccc1-2`, the EC50 was 457 nM. Compared with the last compound, the EC50 is about 1.5-fold lower. With `CCC(=O)N1c2ccccc2-c2nnc(SC)nc2O[C@H]1c1cc2c(cc1Cl)OCO2`, the EC50 was 5250 nM. `CCSc1nnc2c(n1)O[C@@H](c1ccccc1F)N(C(C)=O)c1ccccc1-2` gave an EC50 of 398 nM. The same measure for `C=CCSc1nnc2c(n1)O[C@@H](/C=C/c1cccs1)N(C(C)=O)c1ccccc1-2`: 229 nM; for `C=CCSc1nnc2c(n1)O[C@@H](c1cc(Br)c(OC(C)=O)c(OC)c1)N(C(C)=O)c1ccccc1-2`: 3310 nM. As for `CCC(=O)N1c2ccccc2-c2nnc(SC)nc2O[C@H]1c1ccco1`, the half-maximal effective concentration (EC50) was 4270 nM. The same measure for `CSc1nnc2c(n1)O[C@@H](c1cccc(OCc3ccccc3)c1)N(C(C)=O)c1ccccc1-2`: 3310 nM; for `C=CCSc1nnc2c(n1)O[C@@H](c1ccccc1F)N(C(C)=O)c1ccccc1-2`: 1120 nM. The compound `C=CCSc1nnc2c(n1)O[C@@H](/C=C/c1ccccc1)N(C(C)=O)c1ccccc1-2` gave a half-maximal effective concentration (EC50) of 1700 nM. `CCC(=O)N1c2ccccc2-c2nnc(SC)nc2O[C@H]1c1ccc(I)o1` gave an EC50 of 1410 nM. For the compound `CCC(=O)N1c2ccccc2-c2nnc(SC)nc2O[C@H]1c1ccc(Cl)cc1`, a half-maximal effect (EC50) was put at 871 nM. On to `C=CCSc1nnc2c(n1)O[C@@H](c1cccs1)N(C(C)=O)c1ccccc1-2`, for which the midpoint of the response, the EC50, lay at 316 nM. Compared with the last compound, the EC50 is about 2.8-fold lower. In turn, `C=CCSc1nnc2c(n1)O[C@@H](c1ccco1)N(C(C)=O)c1ccccc1-2` showed an EC50 of 1020 nM.

As to `CCC(=O)N1c2ccccc2-c2nnc(SC)nc2O[C@H]1c1ccccc1C`, the EC50 is 2000 nM. Against the preceding compound, the EC50 is about 2-fold higher.

`CCC(=O)N1c2ccccc2-c2nnc(SC)nc2O[C@H]1c1ccc(OC)c(Br)c1` gave an EC50 of 1100 nM.

As to `C=CCSc1nnc2c(n1)O[C@@H](c1ccccc1)N(C(C)=O)c1ccccc1-2`, the concentration giving a half-maximal response (EC50) was 95.5 nM.

`C=CCSc1nnc2c(n1)O[C@@H](c1ccccn1)N(C(C)=O)c1ccccc1-2` showed a concentration for a half-maximal effect (EC50) of 562 nM. `C=CCSc1nnc2c(n1)O[C@@H](c1ccccc1OCCC)N(C(C)=O)c1ccccc1-2` gave an EC50 of 1320 nM. To `CCC(=O)N1c2ccccc2-c2nnc(SC)nc2O[C@H]1c1cc(Cl)ccc1OC` belongs 759 nM; to `CSc1nnc2c(n1)O[C@H](c1cn(C(C)=O)c3ccccc13)N(C(C)=O)c1ccccc1-2`, 871 nM; to `C=CCOc1ccc([C@@H]2Oc3nc(SCC=C)nnc3-c3ccccc3N2C(C)=O)cc1`, 1200 nM. With `C=CCSc1nnc2c(n1)O[C@@H](c1ccc(N(C)C)cc1)N(C(C)=O)c1ccccc1-2`, the half-maximal effective concentration (EC50) is 3160 nM. Compared with the last compound, the EC50 is about 2.6-fold higher. Consider `CCC(=O)N1c2ccccc2-c2nnc(SC)nc2O[C@H]1c1ccc(OC)cc1`, for which the EC50 is 2190 nM. Take `CCC(=O)N1c2ccccc2-c2nnc(SC)nc2O[C@H]1c1ccccc1OC`: the response was half-maximal at 562 nM (EC50). `CCSc1nnc2c(n1)O[C@H](c1ccc(OC(C)=O)c(OC)c1)N(C(C)=O)c1ccccc1-2`: the EC50 was 1000 nM. The compound `CCSc1nnc2c(n1)O[C@H](c1cc3c(cc1Br)OCO3)N(C(C)=O)c1ccccc1-2` had a half-maximal effective concentration (EC50) of 4270 nM. The compound `CCCSc1nnc2c(n1)O[C@@H](c1ccncc1)N(C(C)=O)c1ccccc1-2` showed an EC50 of 490 nM. To `CCCSc1nnc2c(n1)O[C@@H](c1ccccc1OC)N(C(C)=O)c1ccccc1-2` belongs 158 nM.

Compound `CCC(=O)Oc1ccc(Cl)cc1[C@@H]1Oc2nc(SC)nnc2-c2ccccc2N1C(=O)CC` showed an EC50 of 3240 nM. In turn, `CCC(=O)N1c2ccccc2-c2nnc(SC)nc2O[C@H]1c1cc(OC)ccc1OC` showed an EC50 of 191 nM. To `CCSc1nnc2c(n1)O[C@H](c1ccccc1C)N(C(C)=O)c1ccccc1-2` belongs 2040 nM.

`CCSc1nnc2c(n1)O[C@H](c1cccnc1)N(C(C)=O)c1ccccc1-2` gave a concentration giving a half-maximal response (EC50) of 1820 nM. The EC50 values of the last two compounds are within 1.5-fold of each other. To `CSc1nnc2c(n1)O[C@@H](c1cccc(F)c1)N(C(C)=O)c1ccccc1-2` belongs 1260 nM. The same measure for `CSc1nnc2c(n1)O[C@@H](c1c(C)[nH]c3ccccc13)N(C(C)=O)c1ccccc1-2`: 4070 nM; for `CCOc1ccc(Br)cc1[C@@H]1Oc2nc(SC)nnc2-c2ccccc2N1C(=O)CC`: 398 nM. As to `CCCC(=O)N1c2ccccc2-c2nnc(SC)nc2O[C@H]1c1cccc(C)n1`, the EC50 is 1950 nM. In turn, `CCCSc1nnc2c(n1)O[C@H](c1ccccc1OC(C)=O)N(C(C)=O)c1ccccc1-2` had an EC50 of 1320 nM.

`CCSc1nnc2c(n1)O[C@@H](c1cc(OC(C)=O)ccc1Cl)N(C(C)=O)c1ccccc1-2` had an EC50 of 3800 nM. Against the preceding compound, the EC50 is about 2.9-fold higher. The same measure for `CSc1nnc2c(n1)O[C@@H](c1cccn1C)N(C(C)=O)c1ccccc1-2`: 9550 nM; for `CCSc1nnc2c(n1)O[C@@H](c1ccc(C)s1)N(C(C)=O)c1ccccc1-2`: 1200 nM. In turn, `CCCC(=O)N1c2ccccc2-c2nnc(SC)nc2O[C@H]1c1ccc(OC)cc1OC` had an EC50 of 2090 nM.

On to `CCCC(=O)N1c2ccccc2-c2nnc(SC)nc2O[C@H]1c1cccs1`, for which the EC50 was 871 nM. Take `CCCOc1ccccc1[C@@H]1Oc2nc(SCC)nnc2-c2ccccc2N1C(C)=O`: a half-maximal response (EC50) required 1120 nM. The same measure for `CCSc1nnc2c(n1)O[C@@H](c1ccco1)N(C(C)=O)c1ccccc1-2`: 871 nM; for `CCC(=O)N1c2ccccc2-c2nnc(SC)nc2O[C@H]1c1ccc(Br)s1`: 1120 nM. For `CCOc1cc([C@@H]2Oc3nc(SC)nnc3-c3ccccc3N2C(=O)CC)ccc1OC`, the midpoint of the response, the EC50, lay at 1380 nM.

Turning to `CCCC(=O)N1c2ccccc2-c2nnc(SC)nc2O[C@H]1c1ccc(C)o1`, the 50% effective concentration (EC50) was 2240 nM. In turn, `C=CCSc1nnc2c(n1)O[C@@H](c1cccnc1)N(C(C)=O)c1ccccc1-2` gave an EC50 of 832 nM.

In general, EC50 refers to the concentration at which the effect is half-maximal. Read a high EC50 as weaker potency.
